Assay results from US7662941B2, “Embryonic stem cell self maintenance and renewal reporter” (The Trustees of the University of Princeton - Princeton …, priority 2005, dated 2010).
Where two headings read alike, the source gives them in different places.

Assays:
Assay type in all cases: cell-based, mouse
[1] = tested on: Nanog/GFP expression in NeFREC(g); assay: Combinatorial RA and TSA treatment of NeFREC(g), Nanog/GFP by flow cytometry
Description: In brief, 2.5×10^4 cells were plated in 0.5 ml ES medium. The HDAC inhibitor TSA was added at various concentrations 24 hours post-plating. One day after TSA treatment, medium was changed to ES medium without LIF plus 1.0 μM RA (indicated as day 0). Medium was changed and Nanog/GFP expression monitored by flow cytometry on a daily basis. […] 75 nM TSA rescued Nanog/GFP levels by more than 50% by day 2.

ES cells = tested on: ES cells
[2] = tested on: Nanog/GFP expression in NeFREC(g); assay: Chemical genomics screen in NeFREC(g), ES medium without LIF, Nanog/GFP by flow cytometry; settings: for Effect on RA-induced Nanog/GFP downregulation: agent plus RA compared to RA-induced differentiation condition; for Effect on Nanog/GFP expression / ES cell differentiation induced by omission of LIF: compound alone in ES medium without LIF, one and two days
Description: To validate the use of NeFRECs as an easy reporter cell in chemical genomics proof-of-principle studies were performed with several compounds that are known to show effects on ES cell self-renewal and differentiation or were previously tested in early embryonic development and cancer therapy. The compounds included in the experiment were RA (Sigma, Cat# R2625), Trichostatin A (TSA, Sigma, Cat# T8552, a histone deacetylase (HDAC) inhibitor), Ly294002, (CALBIOCHEM, Cat# 440202, a phosphatidylinositol 3-kinase (PI3K) inhibitor), Rapamycin (Rapa, Sigma, Cat# R0395, an inhibitor of mTOR), PD98059 (CALBIOCHEM, Cat# 513000, a MAP kinase (MAPK) inhibitor), 5-aza-2′-deoxycytidine (AZA, Sigma, Cat# A3656, an inhibitor of DNA methytransferases).
(§1) For the chemical genomics screen 2.5×10^4 cells in 0.5 ml ES medium were plated per 24-well the day before treatment. Medium without LIF supplemented with the different compounds at indicated concentrations was added 24 hrs post-plating. Medium was changed daily. Nanog/GFP levels for each sample were measured by flow cytometry one and two days post drug treatment. Average percentages of Nanog/GFP^+ cells were calculated from duplicate samples (FIG. 10A).

NeFREC(g) = assay: Cell morphology of NeFREC(g) after compound treatment; settings: day 2 of treatment
Description: Microscopy. Microscopy was performed on a Nikon Eclipse TE2000-U microscope with appropriate filter sets, CoolSnapES (black and white/fluorescence) and DXM1200F (color) cameras, and MetaView (black and white/fluorescence) and ACT (color) image-processing software.
as §1
Addition of RA, LY294002 or PD98059 to the cultures has different effects on ES cell colony morphology.

[3] = tested on: Nanog/GFP expression in NeFREC(g); assay: Nanog/GFP expression of NeFREC(g) clones in response to RA, flow cytometry
Description: ES cell growth and differentiation. ES cells were maintained on gelatin-coated tissue culture plates in Dulbecco's Modified Eagels Medium (DMEM; Invitrogen/Gibco) supplemented with 15% fetal calf serum (FCS), 1 mM sodium pyruvate, 2 mM L-glutamine (Invitrogen/Gibco), 0.1 mM non-essential amino acids (Invitrogen/Gibco), 100 U/ml penicillin, 100 μg/ml streptomycin, 1×10^−4 M 2-Mercaptoethanol (2-ME) and 1000 U/ml leukemia inhibitory factor (LIF; ESGROW, Chemicon), henceforth referred to as ES medium. Medium was changed every day and cells were split every second day.
One day prior to differentiation cells were plated on gelatinized culture dishes in the aforementioned medium. Differentiation was induced either by removal of LIF or removal of LIF and addition of retinoic acid (RA, Sigma) if grown in ES medium or either LIF or Bmp4 or both if grown in SF-ES medium.
Cell surface staining, FACS analysis and Cell Sorting. Standard conditions were used to stain the cells. Cell suspensions were analyzed on a FACS Sort (Becton Dickinson). Cell sorting was performed using a FacsVantage with DiVa Software (Becton Dickinson).
NeFREC(g) clones. To determine the dynamics of Nanog/GFP expression of NeFREC(g) clones in response to RA, 4 individual clones (numbers 4, 9, 20 and 23) were analyzed in detail (FIG. 6a upper panel). 2.5×10^4 cells were plated in 0.5 ml ES medium the day before RA treatment. ES medium without LIF and supplemented with 10 μM RA (10 mM stock dissolved in 100% ethanol) was added to cells 24 hours post-plating (indicated as day 0). Nanog/GFP levels in treated cells were measured daily, day 0 to day 3, by flow cytometry. […] By day 3, less than 5% cells remain Nanog/GFP+ in response to RA treatment. […] Eef1b gene expression was used as loading control (5′-[…]-3′ (SEQ ID NO:17) and 5′-[…]-3′ (SEQ ID NO:18)).
To further determine the dynamics of Nanog/GFP expression of NeFREC(g), a RA dosage response experiment, ranging from 0.2 to 10 μM RA, was performed (FIG. 6B). An RA dosage of 0.2 μM is sufficient to induces a rapid and significant downregulation of Nanog/GFP expression in NeFREC(g). Omitting LIF from the ES medium also induces loss of Nanog/GFP expression in these cells at a slower rate compared to RA treatment. Forty percent of the cells still remain Nanog/GFP^+ by day 3. A RA pulse experiment was performed to determine the time required to initiate Nanog/GFP downregulation (i.e. differentiation) in response to 1 μM of RA (FIG. 6C). 2.5×10^4 cells were plated initially in 0.5 ml media per well in a 24-well plate the day before treatment. Cells were pulsed with 1 μM RA in ES medium without LIF for the indicated time periods and then changed to fresh ES medium. Nanog/GFP expression was measured after one day and two days of RA treatment.

[4] = tested on: Nanog/GFP expression in NeFREC(g)-SF; assay: Transient RNA shRNA transfection of NeFREC(g)-SF, Nanog/GFP by flow cytometry; settings: NeFREC(g)-SF in SF-ES medium, by day 2; from 94.8%
Description: Alternatively, ES cells were maintained on gelatin-coated tissue culture plates in a 1:1 mixture of Neurobasal with N2-supplement (Invitrogen/Gibco) and DMEM/F12 with B27 (Invitrogen/Gibco) supplemented with 10% fraction V bovine serum albumin (BSA; Sigma) and 100 U/ml penicillin, 100 μg/ml streptomycin, 1×10^−4 M 2-ME), 1000 U/ml LIF and 10 ng/ml bone morphogenic protein (Bmp) 4 (R&D Systems), henceforth referred to as SF-ES medium. Medium was changed every day and cells split every second day.
RNA shRNA Transfection. For transfection of RNA shRNA, cells were harvested, washed with DMEM and resuspended at 2×10^5/ml in medium without penicillin and streptomycin. 250 μl of medium without penicillin and streptomycin was added per gelatin pre-coated well of a 24-well culture plate. In order to prepare the RNA shRNA transfection mixture per well, 10-20 μl of RNA shRNA [1 pmole/μl] was mixed with OptiMEM (Invitrogen/Gibco) in a final volume of 50 μl. In a separate tube, 1 μl Lipofectamine2000 (Invitrogen) was added to 49 μl of OptiMEM per sample. The RNA shRNA/OptiMEM and Lipofectamine/OptiMEM solutions were combined, mixed, incubated for 20 min at room temperature and added to the well. Then, 250 μl of cell solution, i.e., 5×10^4 cells/well, were added and the 24-well plate incubated in a humidified chamber in 5% CO2/air mixture at 37° C. […]

[5] = tested on: Nanog/GFP expression in NeFREC(g); assay: Transient RNA shRNA transfection of NeFREC(g), Nanog/GFP by flow cytometry; settings: for Nanog/GFP expression (NeFREC(g) bearing Nanog/GFP): by three days, from 90.9%
Description: RNA shRNA Transfection. For transfection of RNA shRNA, cells were harvested, washed with DMEM and resuspended at 2×10^5/ml in medium without penicillin and streptomycin. 250 μl of medium without penicillin and streptomycin was added per gelatin pre-coated well of a 24-well culture plate. In order to prepare the RNA shRNA transfection mixture per well, 10-20 μl of RNA shRNA [1 pmole/μl] was mixed with OptiMEM (Invitrogen/Gibco) in a final volume of 50 μl. In a separate tube, 1 μl Lipofectamine2000 (Invitrogen) was added to 49 μl of OptiMEM per sample. The RNA shRNA/OptiMEM and Lipofectamine/OptiMEM solutions were combined, mixed, incubated for 20 min at room temperature and added to the well. Then, 250 μl of cell solution, i.e., 5×10^4 cells/well, were added and the 24-well plate incubated in a humidified chamber in 5% CO2/air mixture at 37° C. Twenty-four hours after transfection, medium was replaced with appropriate medium with penicillin and streptomycin.
RNA shRNA against GFP (5′-[…] UAGACGUUGUGGCUGU-3′; SEQ ID NO:31) was transfected into NeFREC(g) as described in Example 1. Ten pmole of RNA shRNA against GFP reduced Nanog/GFP reporter expression in NeFREC(g) from 85.8% down to 18% 72 hours post-transfection (FIG. 11A). The reduction in Nanog/GFP fluorescence is RNA shRNA concentration-dependent.
The transcription factor Pou5f1 is required for ES cell maintenance and when reduced by more than 50% of wild-type levels results in differentiation towards trophectodermal cells (Niwa et al., 2000 Nat. Genet. 24:372-376). Therefore, 10 pmole of RNA shRNA against Pou5f1 (5′-[…] UAAGGCUGAGCUGCAA-3′; SEQ ID NO:32) was transfected into NeFREC(g).

CC(/C=C/C(=O)NO)=C\[C@@H](C)C(=O)c1ccc(N(C)C)cc1 [TSA, Trichostatin A]
Rescue of Nanog/GFP levels ([1]; 75 nM TSA, then 1.0 μM RA, by day 2): more than 50% | TSA concentrations at which RA-induced downregulation of Nanog/GFP is markedly reduced ([1]; TSA 24 h, then ES medium without LIF plus 1.0 μM RA): higher than 75 nM | Concentration sufficient to kill all ES cells (ES cells; by day 3 of culture): 300 nM | Cell death as indicated by floating cells in culture (ES cells; too high concentrations): can cause cell death at too high concentrations | Effect on RA-induced Nanog/GFP downregulation [2]: delay RA-induced Nanog/GFP downregulation | Effect on Nanog/GFP expression / ES cell differentiation induced by omission of LIF [2]: blocked or delayed ES cell differentiation

Nc1ncn([C@H]2C[C@H](O)[C@@H](CO)O2)c(=O)n1 [AZA, 5-aza-2′-deoxycytidine]
Cell death as indicated by floating cells in culture (ES cells): can cause cell death at too high concentrations | Effect on RA-induced Nanog/GFP downregulation [2]: delay RA-induced Nanog/GFP downregulation | Effect on Nanog/GFP expression / ES cell differentiation induced by omission of LIF [2]: blocked or delayed ES cell differentiation

COc1cccc(-c2cc(=O)c3ccccc3o2)c1N [PD98059]
ES cell colony morphology (NeFREC(g)): look more like NeFREC(g) cultured in ES medium alone | Effect on RA-induced Nanog/GFP downregulation [2]: delay RA-induced Nanog/GFP downregulation | Effect on Nanog/GFP expression / ES cell differentiation induced by omission of LIF [2]: blocked or delayed ES cell differentiation

CC1=C(/C=C/C(C)=C/C=C/C(C)=C/C(=O)O)C(C)(C)CCC1 [RA, retinoic acid]
cells remaining Nanog/GFP+ ([3]; 10 μM RA, ES medium without LIF, by day 3): less than 5% | GFP levels after RA pulse ([3]; 24-hour treatment with 1 μM RA in ES medium without LIF, then fresh ES medium, from more than 90%): 45% | NeFREC(g)s in which the differentiated state is irreversibly fixed ([3]; after 24-hour differentiation pulse, 1 μM RA): about 50% | RA dosage sufficient to induce rapid and significant downregulation of Nanog/GFP expression ([3]; dosage response 0.2 to 10 μM RA): 0.2 µM

B1: RNA shRNA against GFP: RNA shRNA against GFP, SEQ ID NO:31 (nucleic acid)
chain: AGCCACAACGUCUAUAUCAUGGCCGACAAGUUGGCUUGUCGGCCAUGAUAUAGACGUUGUGGCUGU
modifications: siRNA; RNA, backbone not given here; hairpin shRNA transfected as RNA
Nanog/GFP levels [4]: 14.1% | Concentration dependence of reduction in Nanog/GFP fluorescence ([5]; 0 to 10 pmole RNA shRNA): concentration-dependent | Nanog/GFP reporter expression ([5]; 10 pmole RNA shRNA, 72 hours post-transfection, from 85.8%): 18% | Nanog/GFP expression (NeFREC(g) bearing Nanog/GFP) ([5]; 10 pmole RNA shRNA): 21.2%

B2: RNA shRNA against Pou5f1: RNA shRNA against Pou5f1, SEQ ID NO:32 (nucleic acid)
chain: GCAGCUCAGCCUUAAGAACAUGUGUAAGCUUUGGAGCUUACACAUGUUCUUAAGGCUGAGCUGCAA
modifications: siRNA; RNA, backbone not given here; hairpin shRNA transfected as RNA
Nanog/GFP levels [4]: 68.5% | Nanog/GFP expression (NeFREC(g) bearing Nanog/GFP) ([5]; 10 pmole RNA shRNA): 73.1%
